# Key:
# EB-3 = experiment: cells; assay type: functional, cell-based; settings: Homo sapiens;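 note: human EB-3 cells, growth inhibition read out via a cell viability assay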
# Description: SANGER: Inhibition of human EB-3 cell growth in a cell viability assay.
# NCI-H2171 = experiment: cells; assay type: functional, cell-based; settings: Homo sapiens;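 note: growth inhibition of human NCI-H2171 cells, read out by a cell viability assay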
# Description: SANGER: Inhibition of human NCI-H2171 cell growth in a cell viability assay.
# EVSA-T = experiment: cells; assay type: functional, cell-based, Homo sapiens; settings: Homo sapiens, EVSA-T;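 note: growth inhibition of EVSA-T cells, read out with a cell viability assay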
# Description: SANGER: Inhibition of human EVSA-T cell growth in a cell viability assay.
# TUR = experiment: cells; assay type: functional, cell-based; settings: Homo sapiens;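 note: growth inhibition of human TUR cells, read out with a cell viability assay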
# Description: SANGER: Inhibition of human TUR cell growth in a cell viability assay.
# KMS-12-PE = experiment: cells; assay type: functional, cell-based; settings: Homo sapiens;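 note: growth inhibition of human KMS-12-PE cells, measured with a cell viability assay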
# Description: SANGER: Inhibition of human KMS-12-PE cell growth in a cell viability assay.
# NCI-H2141 = experiment: cells; assay type: functional, cell-based; settings: Homo sapiens;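 note: growth inhibition of human NCI-H2141 cells, read out with a cell viability assay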
# Description: SANGER: Inhibition of human NCI-H2141 cell growth in a cell viability assay.
# SK-MM-2 = experiment: cells; assay type: functional, cell-based; settings: Homo sapiens;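 note: growth inhibition of human SK-MM-2 cells, read out with a cell viability assay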
# Description: SANGER: Inhibition of human SK-MM-2 cell growth in a cell viability assay.
# DG-75 = experiment: cells; assay type: functional, cell-based; settings: Homo sapiens;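 note: growth inhibition of DG-75 cells, read out with a cell viability assay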
# Description: SANGER: Inhibition of human DG-75 cell growth in a cell viability assay.
# NCI-H2107 = experiment: SANGER: Inhibition of human NCI-H2107 cell growth in a cell viability assay.; assay type: functional, cell-based
# NCI-H128 = experiment: SANGER: Inhibition of human NCI-H128 cell growth in a cell viability assay.; assay type: functional, cell-based
# TE-441-T = experiment: cells; assay type: functional, cell-based; settings: Homo sapiens
# Description: SANGER: Inhibition of human TE-441-T cell growth in a cell viability assay.
# MDA-MB-134-VI = experiment: cells; assay type: functional, cell-based; settings: Homo sapiens
# Description: SANGER: Inhibition of human MDA-MB-134-VI cell growth in a cell viability assay.
# LB647-SCLC = experiment: cells; assay type: functional, cell-based; settings: Homo sapiens;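 note: cell growth inhibition, read out by a viability assay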
# Description: SANGER: Inhibition of human LB647-SCLC cell growth in a cell viability assay.
# NCI-H1417 = experiment: cells; assay type: functional, cell-based; settings: Homo sapiens;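 note: human NCI-H1417 cells, growth inhibition determined with a cell viability readout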
# Description: SANGER: Inhibition of human NCI-H1417 cell growth in a cell viability assay.
# CPC-N = experiment: cells; assay type: functional, cell-based; settings: Homo sapiens;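 note: growth inhibition of CPC-N cells, with a cell viability assay as the readout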
# Description: SANGER: Inhibition of human CPC-N cell growth in a cell viability assay.
# NCI-H719 = experiment: cells; assay type: functional, cell-based; settings: Homo sapiens;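 note: growth inhibition of the cultured cell line, read out with a viability assay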
# Description: SANGER: Inhibition of human NCI-H719 cell growth in a cell viability assay.
# SKM-1 = experiment: SANGER: Inhibition of human SKM-1 cell growth in a cell viability assay.; assay type: functional, cell-based
# LOUCY = experiment: cells; assay type: functional, cell-based; settings: Homo sapiens;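 note: growth inhibition of human LOUCY cells, read out with a cell viability assay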
# Description: SANGER: Inhibition of human LOUCY cell growth in a cell viability assay.
# LU-165 = experiment: cells; assay type: functional, cell-based; settings: Homo sapiens
# Description: SANGER: Inhibition of human LU-165 cell growth in a cell viability assay.
# SR = experiment: cells; assay type: functional, cell-based; settings: Homo sapiens
# Description: SANGER: Inhibition of human SR cell growth in a cell viability assay.
# SU-DHL-1 = experiment: SANGER: Inhibition of human SU-DHL-1 cell growth in a cell viability assay.; assay type: functional, cell-based
# EW-12 = experiment: SANGER: Inhibition of human EW-12 cell growth in a cell viability assay.; assay type: functional, cell-based
# U-698-M = experiment: cells; assay type: functional, cell-based; settings: Homo sapiens
# Description: SANGER: Inhibition of human U-698-M cell growth in a cell viability assay.
# NCI-H187 = experiment: cells; assay type: functional, cell-based; settings: Homo sapiens;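 note: growth inhibition of NCI-H187 cells, read out as cell viability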
# Description: SANGER: Inhibition of human NCI-H187 cell growth in a cell viability assay.
# TE-15 = experiment: cells; assay type: functional, cell-based; settings: Homo sapiens;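 note: cell viability readout of growth inhibition in TE-15 cells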
# Description: SANGER: Inhibition of human TE-15 cell growth in a cell viability assay.
# CESS = experiment: SANGER: Inhibition of human CESS cell growth in a cell viability assay.; assay type: functional, cell-based
# MONO-MAC-6 = experiment: cells; assay type: functional, cell-based; settings: Homo sapiens;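 note: cell viability assay measuring growth inhibition of human MONO-MAC-6 cells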
# Description: SANGER: Inhibition of human MONO-MAC-6 cell growth in a cell viability assay.
# SCLC-21H = experiment: cells; assay type: functional, cell-based; settings: Homo sapiens;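 note: growth inhibition of cultured human SCLC-21H cells, read out with a cell viability assay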
# Description: SANGER: Inhibition of human SCLC-21H cell growth in a cell viability assay.
# EW-22 = experiment: cells; assay type: functional, cell-based; settings: Homo sapiens;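 note: growth inhibition of the EW-22 cell line, measured with a cell viability readout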
# Description: SANGER: Inhibition of human EW-22 cell growth in a cell viability assay.
# NCI-H2291 = experiment: cells; assay type: functional, cell-based; settings: Homo sapiens
# Description: SANGER: Inhibition of human NCI-H2291 cell growth in a cell viability assay.
# NCI-H1048 = experiment: cells; assay type: functional, cell-based; settings: Homo sapiens;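 note: growth inhibition of human NCI-H1048 cells, read out with a cell viability assay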
# Description: SANGER: Inhibition of human NCI-H1048 cell growth in a cell viability assay.
# NCI-H522 = experiment: cells; assay type: functional, cell-based, Homo sapiens; settings: Homo sapiens, NCI-H522;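 note: cell viability assay measuring growth inhibition of human NCI-H522 cells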
# Description: SANGER: Inhibition of human NCI-H522 cell growth in a cell viability assay.
# NCI-H630 = experiment: cells; assay type: functional, cell-based, Homo sapiens; settings: Homo sapiens, NCI-H630;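 note: growth inhibition of NCI-H630 cells, read out with a cell viability assay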
# Description: SANGER: Inhibition of human NCI-H630 cell growth in a cell viability assay.
# SJRH30 = experiment: cells; assay type: functional, cell-based; settings: Homo sapiens;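 note: growth inhibition of human SJRH30 cells, read out with a cell viability assay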
# Description: SANGER: Inhibition of human SJRH30 cell growth in a cell viability assay.
# NBsusSR = experiment: cells; assay type: functional, cell-based; settings: Homo sapiens;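 note: growth inhibition of the human cell line, read out with a cell viability assay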
# Description: SANGER: Inhibition of human NBsusSR cell growth in a cell viability assay.
# HuO9 = experiment: cells; assay type: functional, cell-based, Homo sapiens; settings: Homo sapiens, HuO9;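 note: growth inhibition of HuO9 cells, read out with a cell viability assay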
# Description: SANGER: Inhibition of human HuO9 cell growth in a cell viability assay.
# H-EMC-SS = experiment: cells; assay type: functional, cell-based; settings: Homo sapiens
# Description: SANGER: Inhibition of human H-EMC-SS cell growth in a cell viability assay.
# NCI-H2029 = experiment: cells; assay type: functional, cell-based; settings: Homo sapiens;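 note: Read-out is a viability assay on the cultured cells, and IC50 is the concentration that suppresses cell growth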
# Description: SANGER: Inhibition of human NCI-H2029 cell growth in a cell viability assay.
# G-361 = experiment: cells; assay type: functional, cell-based, Homo sapiens; settings: Homo sapiens, G-361
# CHP-134 = experiment: SANGER: Inhibition of human CHP-134 cell growth in a cell viability assay.; assay type: functional, cell-based
Compound,IC50 (EB-3),IC50 (NCI-H2171),IC50 (EVSA-T),IC50 (TUR),IC50 (KMS-12-PE),IC50 (NCI-H2141),IC50 (SK-MM-2),IC50 (DG-75),IC50 (NCI-H2107),IC50 (NCI-H128),IC50 (TE-441-T),IC50 (MDA-MB-134-VI),IC50 (LB647-SCLC),IC50 (NCI-H1417),IC50 (CPC-N),IC50 (NCI-H719),IC50 (SKM-1),IC50 (LOUCY),IC50 (LU-165),IC50 (SR),other results
CC1=C2C[C@H]3[C@@H](CC=C4C[C@@H](O)CC[C@@]43C)[C@@H]2CC[C@]12O[C@@H]1C[C@H](C)CN[C@H]1[C@H]2C [CYCLOPAMINE],> 16000 nM,> 16000 nM,> 16000 nM,> 16000 nM,> 16000 nM,> 16000 nM,> 16000 nM,> 16000 nM,> 16000 nM,> 16000 nM,> 16000 nM,> 16000 nM,> 16000 nM,> 16000 nM,> 16000 nM,> 16000 nM,> 16000 nM,> 16000 nM,> 16000 nM,> 16000 nM,IC50 (SU-DHL-1): > 16000 nM; IC50 (EW-12): > 16000 nM; IC50 (U-698-M): > 16000 nM; IC50 (NCI-H187): > 16000 nM; IC50 (TE-15): > 16000 nM; IC50 (CESS): > 16000 nM; IC50 (MONO-MAC-6): > 16000 nM; IC50 (SCLC-21H): > 16000 nM
CS(=O)(=O)CCNCc1ccc(-c2ccc3ncnc(Nc4ccc(OCc5cccc(F)c5)c(Cl)c4)c3c2)o1 [LAPATINIB],> 2000 nM,> 2000 nM,> 2000 nM,> 2000 nM,> 2000 nM,> 2000 nM,> 2000 nM,> 2000 nM,> 2000 nM,> 2000 nM,> 2000 nM,> 2000 nM,> 2000 nM,> 2000 nM,> 2000 nM,> 2000 nM,> 2000 nM,> 2000 nM,> 2000 nM,> 2000 nM,IC50 (SU-DHL-1): > 2000 nM; IC50 (EW-12): > 2000 nM; IC50 (U-698-M): > 2000 nM; IC50 (NCI-H187): > 2000 nM; IC50 (TE-15): > 2000 nM; IC50 (CESS): > 2000 nM; IC50 (MONO-MAC-6): > 2000 nM; IC50 (SCLC-21H): > 2000 nM
CCc1nc(N)nc(N)c1-c1ccc(Cl)cc1 [PYRIMETHAMINE],> 20000 nM,> 20000 nM,> 20000 nM,> 20000 nM,> 20000 nM,> 20000 nM,> 20000 nM,14600 nM,> 20000 nM,> 20000 nM,> 20000 nM,> 20000 nM,> 20000 nM,> 20000 nM,> 20000 nM,> 20000 nM,> 20000 nM,10900 nM,> 20000 nM,16500 nM,IC50 (EW-22): > 20000 nM; IC50 (SU-DHL-1): 10800 nM; IC50 (EW-12): > 20000 nM; IC50 (U-698-M): > 20000 nM; IC50 (NCI-H187): > 20000 nM; IC50 (TE-15): > 20000 nM; IC50 (CESS): 5710 nM; IC50 (MONO-MAC-6): 16300 nM; IC50 (SCLC-21H): > 20000 nM
O=C(/C=C/c1ccccc1)NC(NC(=S)Nc1cccc2cccnc12)C(Cl)(Cl)Cl (centres undefined) [SALUBRINAL],9630 nM,> 16000 nM,12900 nM,> 16000 nM,> 16000 nM,> 16000 nM,> 16000 nM,> 16000 nM,> 16000 nM,> 16000 nM,> 16000 nM,> 16000 nM,> 16000 nM,> 16000 nM,> 16000 nM,> 16000 nM,> 16000 nM,> 16000 nM,> 16000 nM,> 16000 nM,IC50 (SU-DHL-1): > 16000 nM; IC50 (EW-12): > 16000 nM; IC50 (U-698-M): > 16000 nM; IC50 (NCI-H187): > 16000 nM; IC50 (TE-15): > 16000 nM; IC50 (CESS): 11700 nM; IC50 (MONO-MAC-6): 10500 nM; IC50 (SCLC-21H): > 16000 nM
CN1CCN(CCOc2cc(OC3CCOCC3)c3c(Nc4c(Cl)ccc5c4OCO5)ncnc3c2)CC1 [SARACATINIB],> 2000 nM,> 2000 nM,> 2000 nM,> 2000 nM,> 2000 nM,> 2000 nM,> 2000 nM,> 2000 nM,> 2000 nM,> 2000 nM,> 2000 nM,> 2000 nM,> 2000 nM,> 2000 nM,> 2000 nM,> 2000 nM,> 2000 nM,> 2000 nM,> 2000 nM,> 2000 nM,IC50 (EW-22): > 2000 nM; IC50 (SU-DHL-1): > 2000 nM; IC50 (EW-12): > 2000 nM; IC50 (U-698-M): > 2000 nM; IC50 (NCI-H187): > 2000 nM; IC50 (TE-15): 274 nM; IC50 (CESS): > 2000 nM; IC50 (MONO-MAC-6): > 2000 nM; IC50 (SCLC-21H): > 2000 nM
CNC(=O)c1cc(Oc2ccc(NC(=O)Nc3ccc(Cl)c(C(F)(F)F)c3)cc2)ccn1 [SORAFENIB],> 4000 nM,2400 nM,> 4000 nM,> 4000 nM,> 4000 nM,> 4000 nM,> 4000 nM,> 4000 nM,> 4000 nM,> 4000 nM,> 4000 nM,> 4000 nM,> 4000 nM,> 4000 nM,> 4000 nM,> 4000 nM,> 4000 nM,> 4000 nM,> 4000 nM,> 4000 nM,IC50 (EW-22): > 4000 nM; IC50 (SU-DHL-1): > 4000 nM; IC50 (EW-12): > 4000 nM; IC50 (U-698-M): > 4000 nM; IC50 (NCI-H187): > 4000 nM; IC50 (TE-15): > 4000 nM; IC50 (CESS): > 4000 nM; IC50 (MONO-MAC-6): 4.18 nM; IC50 (SCLC-21H): > 4000 nM
C=CCNC1=C2C[C@@H](C)C[C@H](OC)[C@H](O)[C@@H](C)/C=C(\C)[C@H](OC(N)=O)[C@@H](OC)/C=C\C=C(/C)C(=O)NC(=CC1=O)C2=O [TANESPIMYCIN],–,–,–,–,–,–,–,–,–,–,–,–,–,–,–,–,–,–,–,–,IC50 (NCI-H2291): 479 nM; IC50 (EW-22): > 1000 nM; IC50 (NCI-H1048): 290 nM; IC50 (NCI-H522): 878 nM; IC50 (NCI-H630): > 1000 nM; IC50 (SJRH30): > 1000 nM; IC50 (NBsusSR): 373 nM; IC50 (HuO9): 75.9 nM; IC50 (H-EMC-SS): > 1000 nM; IC50 (NCI-H2029): > 1000 nM; IC50 (G-361): 227 nM; IC50 (CHP-134): > 1000 nM
CCC(=O)N1CCN(c2ccc(-n3c(=O)ccc4cnc5ccc(-c6cnc7ccccc7c6)cc5c43)cc2C(F)(F)F)CC1 [TORIN1],36.4 nM,> 1200 nM,8.92 nM,> 1200 nM,> 1200 nM,1190 nM,107 nM,262 nM,1170 nM,> 1200 nM,1040 nM,143 nM,117 nM,697 nM,1160 nM,967 nM,> 1200 nM,63.9 nM,> 1200 nM,63.7 nM,IC50 (SU-DHL-1): 645 nM; IC50 (EW-12): > 1200 nM; IC50 (U-698-M): > 1200 nM; IC50 (NCI-H187): 478 nM; IC50 (TE-15): 44.3 nM; IC50 (CESS): 31 nM; IC50 (MONO-MAC-6): 72.1 nM; IC50 (SCLC-21H): > 1200 nM
Cc1cc(Nc2cc(N3CCN(C)CC3)nc(Sc3ccc(NC(=O)C4CC4)cc3)n2)n[nH]1 [TOZASERTIB],> 2000 nM,> 2000 nM,> 2000 nM,> 2000 nM,> 2000 nM,> 2000 nM,> 2000 nM,> 2000 nM,> 2000 nM,> 2000 nM,> 2000 nM,> 2000 nM,215 nM,> 2000 nM,> 2000 nM,> 2000 nM,> 2000 nM,> 2000 nM,> 2000 nM,246 nM,IC50 (SU-DHL-1): > 2000 nM; IC50 (EW-12): > 2000 nM; IC50 (U-698-M): > 2000 nM; IC50 (NCI-H187): 641 nM; IC50 (TE-15): 851 nM; IC50 (CESS): 313 nM; IC50 (MONO-MAC-6): 78.8 nM; IC50 (SCLC-21H): 1970 nM

# From ChEMBL document CHEMBL1201861, “Genomics of Drug Sensitity in Cancer screening data, Wellcome Trust Sanger Institute”
